Assay: xn = mol fraction of the nth substance listed
Details: Liquid, Vibrating tube method

CCCCCl [1-chlorobutane] + CCCCCCC
mass density [kg/m3]
Details | 293.15 K | 298.15 K
100 kPa, x2 = 0.0508 | – | 866.47
100 kPa, x2 = 0.0994 | – | 853.29
100 kPa, x2 = 0.2013 | – | 827.27
100 kPa, x2 = 0.3015 | – | 803.67
100 kPa, x2 = 0.4008 | – | 781.96
100 kPa, x2 = 0.5026 | – | 761.38
100 kPa, x2 = 0.6012 | – | 742.88
100 kPa, x2 = 0.7003 | – | 725.57
100 kPa, x2 = 0.7995 | – | 709.43
100 kPa, x2 = 0.9011 | – | 694
100 kPa, x2 = 0.9494 | – | 687.02
2000 kPa, x2 = 0.0508 | – | 868.56
2000 kPa, x2 = 0.0994 | – | 855.4
2000 kPa, x2 = 0.2013 | – | 829.39
2000 kPa, x2 = 0.3015 | – | 805.75
2000 kPa, x2 = 0.4008 | – | 784.08
2000 kPa, x2 = 0.5026 | – | 763.54
2000 kPa, x2 = 0.6012 | – | 745
2000 kPa, x2 = 0.7003 | – | 727.68
2000 kPa, x2 = 0.7995 | – | 711.52
2000 kPa, x2 = 0.9011 | – | 696.1
2000 kPa, x2 = 0.9494 | – | 689.1
5000 kPa, x2 = 0.0508 | – | 871.65
5000 kPa, x2 = 0.0994 | – | 858.46
5000 kPa, x2 = 0.2013 | – | 832.44
5000 kPa, x2 = 0.3015 | – | 808.8
5000 kPa, x2 = 0.4008 | – | 787.1
5000 kPa, x2 = 0.5026 | – | 766.44
5000 kPa, x2 = 0.6012 | – | 747.93
5000 kPa, x2 = 0.7003 | – | 730.59
5000 kPa, x2 = 0.7995 | – | 714.37
5000 kPa, x2 = 0.9011 | – | 698.9
5000 kPa, x2 = 0.9494 | – | 691.9
7000 kPa, x2 = 0.0508 | – | 873.68
7000 kPa, x2 = 0.0994 | – | 860.48
7000 kPa, x2 = 0.2013 | – | 834.46
7000 kPa, x2 = 0.3015 | – | 810.76
7000 kPa, x2 = 0.4008 | – | 789.09
7000 kPa, x2 = 0.5026 | – | 768.42
7000 kPa, x2 = 0.6012 | – | 749.89
7000 kPa, x2 = 0.7003 | – | 732.52
7000 kPa, x2 = 0.7995 | – | 716.31
7000 kPa, x2 = 0.9011 | – | 700.8
7000 kPa, x2 = 0.9494 | – | 693.79
10000 kPa, x2 = 0.0508 | – | 876.62
10000 kPa, x2 = 0.0994 | – | 863.41
10000 kPa, x2 = 0.2013 | – | 837.33
10000 kPa, x2 = 0.3015 | – | 813.6
10000 kPa, x2 = 0.4008 | – | 791.87
10000 kPa, x2 = 0.5026 | – | 771.16
10000 kPa, x2 = 0.6012 | – | 752.57
10000 kPa, x2 = 0.7003 | – | 735.16
10000 kPa, x2 = 0.7995 | – | 718.95
10000 kPa, x2 = 0.9011 | – | 703.38
10000 kPa, x2 = 0.9494 | – | 696.37
20000 kPa, x2 = 0.0508 | – | 885.92
20000 kPa, x2 = 0.0994 | – | 872.69
20000 kPa, x2 = 0.2013 | – | 846.51
20000 kPa, x2 = 0.3015 | – | 822.71
20000 kPa, x2 = 0.4008 | – | 800.83
20000 kPa, x2 = 0.5026 | 784.43 | 780.1
20000 kPa, x2 = 0.6012 | 765.68 | 761.37
20000 kPa, x2 = 0.7003 | 748.06 | 743.91
20000 kPa, x2 = 0.7995 | 731.66 | 727.56
20000 kPa, x2 = 0.9011 | 715.92 | 711.9
20000 kPa, x2 = 0.9494 | 708.79 | 704.84
30000 kPa, x2 = 0.0508 | 899 | 894.38
30000 kPa, x2 = 0.0994 | 885.66 | 881.09
30000 kPa, x2 = 0.2013 | 859.31 | 854.8
30000 kPa, x2 = 0.3015 | 835.33 | 830.93
30000 kPa, x2 = 0.4008 | 813.25 | 808.96
30000 kPa, x2 = 0.5026 | 792.34 | 788.14
30000 kPa, x2 = 0.6012 | 773.46 | 769.31
30000 kPa, x2 = 0.7003 | 755.75 | 751.75
30000 kPa, x2 = 0.7995 | 739.24 | 735.28
30000 kPa, x2 = 0.9011 | 723.44 | 719.55
30000 kPa, x2 = 0.9494 | 716.27 | 712.41
40000 kPa, x2 = 0.0508 | 906.7 | 902.26
40000 kPa, x2 = 0.0994 | 893.3 | 888.92
40000 kPa, x2 = 0.2013 | 866.83 | 862.54
40000 kPa, x2 = 0.3015 | 842.76 | 838.54
40000 kPa, x2 = 0.4008 | 820.58 | 816.49
40000 kPa, x2 = 0.5026 | 799.52 | 795.57
40000 kPa, x2 = 0.6012 | 780.6 | 776.69
40000 kPa, x2 = 0.7003 | 762.81 | 759
40000 kPa, x2 = 0.7995 | 746.17 | 742.45
40000 kPa, x2 = 0.9011 | 730.25 | 726.58
40000 kPa, x2 = 0.9494 | 723.03 | 719.41
50000 kPa, x2 = 0.0508 | 913.76 | 909.49
50000 kPa, x2 = 0.0994 | 900.34 | 896.12
50000 kPa, x2 = 0.2013 | 873.81 | 869.69
50000 kPa, x2 = 0.3015 | 849.63 | 845.59
50000 kPa, x2 = 0.4008 | 827.43 | 823.5
50000 kPa, x2 = 0.5026 | 806.3 | 802.4
50000 kPa, x2 = 0.6012 | 787.26 | 783.45
50000 kPa, x2 = 0.7003 | 769.39 | 765.7
50000 kPa, x2 = 0.7995 | 752.7 | 749.08
50000 kPa, x2 = 0.9011 | 736.68 | 733.13
50000 kPa, x2 = 0.9494 | 729.41 | 725.89
60000 kPa, x2 = 0.0508 | 920.42 | 916.33
60000 kPa, x2 = 0.0994 | 906.99 | 902.96
60000 kPa, x2 = 0.2013 | 880.39 | 876.46
60000 kPa, x2 = 0.3015 | 856.15 | 852.33
60000 kPa, x2 = 0.4008 | 833.88 | 830.1
60000 kPa, x2 = 0.5026 | 812.63 | 809.01
60000 kPa, x2 = 0.6012 | 793.52 | 790
60000 kPa, x2 = 0.7003 | 775.64 | 772.14
60000 kPa, x2 = 0.7995 | 758.87 | 755.42
60000 kPa, x2 = 0.9011 | 742.77 | 739.4
60000 kPa, x2 = 0.9494 | 735.46 | 732.12
65000 kPa, x2 = 0.0508 | 923.76 | 919.61
65000 kPa, x2 = 0.0994 | 910.28 | 906.21
65000 kPa, x2 = 0.2013 | 883.59 | 879.69
65000 kPa, x2 = 0.3015 | 859.28 | 855.51
65000 kPa, x2 = 0.4008 | 836.95 | 833.25
65000 kPa, x2 = 0.5026 | 815.67 | 812.1
65000 kPa, x2 = 0.6012 | 796.5 | 793.04
65000 kPa, x2 = 0.7003 | 778.5 | 775.16
65000 kPa, x2 = 0.7995 | 761.67 | 758.43
65000 kPa, x2 = 0.9011 | 745.52 | 742.37
65000 kPa, x2 = 0.9494 | 738.19 | 735.07

Source: the NIST ThermoML archive (doi:10.1016/j.tca.2015.06.017)
